Measured values reported in PubChem BioAssay (NCI).
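A five-concentration, 48-hour dose response in 96-well plates underlies each endpoint, interpolated linearly between surrounding concentrations. Here, GI50 denotes the concentration required for 50% inhibition of growth. Definition used: TGI = concentration required for complete inhibition of growth.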

Experiments:
Assay in all cases: NCI-60 cell line screen, 48 h
UACC-62 melanoma = system: UACC-62 melanoma
LOX IMVI melanoma = system: LOX IMVI melanoma
CAKI-1 renal = system: CAKI-1 renal
SK-MEL-28 melanoma = system: SK-MEL-28 melanoma
SNB-75 CNS = system: SNB-75 CNS
SF-268 CNS = system: SF-268 CNS
HT29 colon = system: HT29 colon
MDA-MB-231 breast = system: MDA-MB-231 breast
U251 CNS = system: U251 CNS
OVCAR-8 ovarian = system: OVCAR-8 ovarian
SW-620 colon = system: SW-620 colon
COLO 205 colon = system: COLO 205 colon
UO-31 renal = system: UO-31 renal
K-562 leukemia = system: K-562 leukemia
HL-60(TB) leukemia = system: HL-60(TB) leukemia
RPMI-8226 leukemia = system: RPMI-8226 leukemia
NCI-H522 lung = system: NCI-H522 lung
HOP-92 NSCLC = system: HOP-92 NSCLC
DU-145 prostate = system: DU-145 prostate
ACHN renal = system: ACHN renal
SK-OV-3 ovarian = system: SK-OV-3 ovarian
786-0 renal = system: 786-0 renal
MALME-3M melanoma = system: MALME-3M melanoma
SR leukemia = system: SR leukemia
KM12 colon = system: KM12 colon
HCC-2998 colon = system: HCC-2998 colon
SNB-19 CNS = system: SNB-19 CNS
T-47D breast = system: T-47D breast
SK-MEL-2 melanoma = system: SK-MEL-2 melanoma

CC(=C(c1ccc(OCCN(C)C)cc1)c1ccc(OCCN(C)C)cc1)c1ccc(Cl)cc1
GI50 (UACC-62 melanoma): 576 nM | TGI (UACC-62 melanoma): 1130 nM | GI50 (LOX IMVI melanoma): 542 nM | TGI (LOX IMVI melanoma): 1030 nM | GI50 (CAKI-1 renal): 652 nM | TGI (CAKI-1 renal): 1690 nM | GI50 (SK-MEL-28 melanoma): 605 nM | TGI (SK-MEL-28 melanoma): 1130 nM | GI50 (SNB-75 CNS): 2580 nM | TGI (SNB-75 CNS): 7600 nM | GI50 (SF-268 CNS): 1600 nM | TGI (SF-268 CNS): 6210 nM | GI50 (HT29 colon): 615 nM | TGI (HT29 colon): 1490 nM | GI50 (MDA-MB-231 breast): 687 nM | TGI (MDA-MB-231 breast): 1560 nM | GI50 (U251 CNS): 631 nM | TGI (U251 CNS): 1460 nM | GI50 (OVCAR-8 ovarian): 1170 nM | TGI (OVCAR-8 ovarian): 4360 nM | GI50 (SW-620 colon): 569 nM | TGI (SW-620 colon): 1170 nM | GI50 (COLO 205 colon): 621 nM | TGI (COLO 205 colon): 1270 nM | GI50 (UO-31 renal): 847 nM | TGI (UO-31 renal): 2650 nM | GI50 (K-562 leukemia): 770 nM | TGI (K-562 leukemia): 7710 nM | GI50 (HL-60(TB) leukemia): 708 nM | TGI (HL-60(TB) leukemia): 1640 nM | GI50 (RPMI-8226 leukemia): 651 nM | TGI (RPMI-8226 leukemia): 1580 nM | GI50 (NCI-H522 lung): 756 nM | TGI (NCI-H522 lung): 2100 nM | GI50 (HOP-92 NSCLC): 740 nM | TGI (HOP-92 NSCLC): 3040 nM | GI50 (DU-145 prostate): 1380 nM | TGI (DU-145 prostate): 4900 nM | GI50 (ACHN renal): 709 nM | TGI (ACHN renal): 1570 nM | GI50 (SK-OV-3 ovarian): 4800 nM | TGI (SK-OV-3 ovarian): 9530 nM | GI50 (786-0 renal): 591 nM | TGI (786-0 renal): 1160 nM | GI50 (MALME-3M melanoma): 570 nM | TGI (MALME-3M melanoma): 1080 nM | GI50 (SR leukemia): 638 nM | TGI (SR leukemia): 3290 nM | GI50 (KM12 colon): 1450 nM | TGI (KM12 colon): 3560 nM | GI50 (HCC-2998 colon): 617 nM | TGI (HCC-2998 colon): 1310 nM | GI50 (SNB-19 CNS): 1160 nM | TGI (SNB-19 CNS): 4360 nM | GI50 (T-47D breast): 633 nM | TGI (T-47D breast): 1410 nM | GI50 (SK-MEL-2 melanoma): 2100 nM | TGI (SK-MEL-2 melanoma): 4820 nM
